These results are taken from patent publication US5541179A, “Tropon-2-one piperazine carboxamides as serotonergic agents” (American Home Products Corporation, priority 1995, dated 1996).

The target in test [1] is T1, 5-HT1A serotonin receptor (Rattus norvegicus, UniProt P19327).
T1 construct: from tissue
T1 sequence (P19327 1-422): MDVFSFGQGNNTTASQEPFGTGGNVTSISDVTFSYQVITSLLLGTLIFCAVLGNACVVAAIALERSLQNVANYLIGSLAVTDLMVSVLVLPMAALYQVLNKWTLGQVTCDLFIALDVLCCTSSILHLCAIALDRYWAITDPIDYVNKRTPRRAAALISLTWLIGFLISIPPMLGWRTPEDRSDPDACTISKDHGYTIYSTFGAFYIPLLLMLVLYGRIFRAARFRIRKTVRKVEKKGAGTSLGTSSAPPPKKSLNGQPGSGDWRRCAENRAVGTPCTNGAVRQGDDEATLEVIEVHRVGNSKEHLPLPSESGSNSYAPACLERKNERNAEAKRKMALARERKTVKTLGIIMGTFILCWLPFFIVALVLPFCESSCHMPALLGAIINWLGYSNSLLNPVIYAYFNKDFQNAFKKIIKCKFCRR
Particulars: qualitative statement on reference standard; cited from earlier work.

The target of test [2] is T1, 5-HT1A serotonin receptor. The test is described as follows: 5-HT1A receptor binding, displacement of [^3 H]8-OHDPAT (procedure of Hall et al., J. Neurochem. 44, 1685 (1985)).
Description: High affinity for the serotonin 5-HT1A receptor was established by testing the claimed compound's ability to displace [^3 H]8-OHDPAT (dipropylaminotetralin) from the 5-HT1A serotonin receptor following the procedure of Hall et al., J. Neurochem.

SMILES strings stand for the structures.

Turning to `O=C1CC2(CCCC2)CC(=O)N1CCCCN1CCN(c2ncccn2)CC1` [Buspirone], the “affinity for the 5-HT1A serotonin receptor subtype of the standard (in words)” value in test [1] is listed as “potent affinity”. The term IC50 denotes the point on the concentration scale where inhibition reaches its midpoint. Lower therefore signals higher potency. With `O=C(C(CCN1CCN(c2cccccc2=O)CC1)c1ccccc1)N1CCCCCC1` (centres unmarked) [Example 1, 2-[4-(4-Azepan-1-yl-4-oxo-3-phenyl-butyl)-piperazin-1-yl]-cyclohepta-2,4,6-trienone], the IC50 in test [2] amounted to 18.6 nM.

In test [2], `C[C@H](CN1CCN(c2cccccc2=O)CC1)Nc1ccccn1` [Example 2, (R)-2-{4-[2-(Pyridin-2-ylamino)-propyyl}-piperazin-1-yl}-cyclohepta-2,4,6trienone] came in with an IC50 of 19.8 nM. On the same count and under the same terms, next, `C[C@H](CN1CCN(c2cccccc2=O)CC1)N(C(=O)C1CC=CCC1)c1ccccn1` (stereo partly drawn) [Example 3, Cyclohex-3-enecarboxylic acid (R)-{1-methyl-2-[4-(7-oxo-cyclohepta-1,3,5-trienyl)-piperazin-1-yl]-ethyl}-(pyridin-2-yl)-amide]: 861 nM; `C[C@H](CN1CCN(c2cccccc2=O)CC1)N(C(=O)C1CCCCC1)c1ccccn1` [Example 4, Cyclohexanecarboxylic acid (R)-{1-methyl-2-[4-(7-oxo-cyclohepta-1,3,5-trienyl)-piperazin-1-yl]-ethyl}-(pyrilin-2-yl)-amide]: 351 nM.
